Experimental data: patent US8975398B2, “NAMPT inhibitors” (AbbVie Inc., priority 2012, dated 2015)

Assays:
[1] = target: NAMPT (human, recombinant, C-terminally His-tagged) (Homo sapiens, UniProt P43490); assay: Time-Resolved Fluorescence Resonance Energy Transfer (TR-FRET) Binding Assay of NAMPT; details: 6.8 nM NAMPT, 200 nM probe, equilibrated 3 hours, absence of substrates
Method in brief: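 Recombinant C-terminally His-tagged human NAMPT (6.8 nM) incubated 3 h at room temperature with 200 nM Oregon Green 488–labelled nicotinamide-competitive probe and 1 nM Tb-anti-His antibody in HEPES pH 7.5, 2% DMSO. TR-FRET ratio Em520/Em495 normalized to controls; IC50 from four-parameter logistic fit.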

NAMPT = NAMPT (Homo sapiens, UniProt P43490); assay: Time-Resolved Fluorescence Resonance Energy Transfer (TR-FRET) Binding Assay of NAMPT with PRPP; details: 2 nM NAMPT, 2 nM probe, 200 uM PRPP and 2.5 mM ATP, equilibrated 16 hours
Sequence of NAMPT (P43490 whole entry): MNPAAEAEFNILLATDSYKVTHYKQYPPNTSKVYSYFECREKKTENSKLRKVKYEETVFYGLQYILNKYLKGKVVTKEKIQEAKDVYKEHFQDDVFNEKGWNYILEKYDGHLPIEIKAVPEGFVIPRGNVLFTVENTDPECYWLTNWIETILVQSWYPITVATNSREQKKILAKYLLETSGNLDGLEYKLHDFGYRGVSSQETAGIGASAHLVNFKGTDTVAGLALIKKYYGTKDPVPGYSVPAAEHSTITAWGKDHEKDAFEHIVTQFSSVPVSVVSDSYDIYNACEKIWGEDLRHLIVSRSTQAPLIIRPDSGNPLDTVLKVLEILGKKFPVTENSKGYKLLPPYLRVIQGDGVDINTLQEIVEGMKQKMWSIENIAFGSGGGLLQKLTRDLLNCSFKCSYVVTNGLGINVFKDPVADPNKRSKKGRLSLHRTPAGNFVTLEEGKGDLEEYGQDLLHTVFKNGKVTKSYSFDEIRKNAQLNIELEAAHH
Method in brief: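 Final mix: 2 nM NAMPT, 2 nM probe, 1 nM Tb-anti-His antibody, 200 uM PRPP, 2.5 mM ATP, 2% DMSO in 1× assay buffer. Equilibrated 16 hours before TR-FRET read, allowing possible enzymatic modification of compounds.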

Sequence of NAMPT (human, recombinant, C-terminally His-tagged) (P43490 whole entry): as above

Row | SMILES | IC50 [1] | IC50 (NAMPT)
1 | CC1(C(=O)N2CCC(c3ccc(NC(=O)C4CN(c5cccnc5)C4)cc3)CC2)CCCCC1 [Example 117, N-(4-{1-[(1-methylcyclohexyl)carbonyl]piperidin-4-yl}phenyl)-1-(pyridin-3-yl)azetidine-3-carboxamide] | 6.27 nM | 0.355 nM
2 | CC(C)CC(=O)N1CCC(c2ccc(NC(=O)C3CN(c4cccnc4)C3)cc2)CC1 [Example 137, N-{4-[1-(3-methylbutanoyl)piperidin-4-yl]phenyl}-1-(pyridin-3-yl)azetidine-3-carboxamide] | 17.6 nM | 0.459 nM
3 | COCC(=O)N1CCC(Oc2ccc(NC(=O)C3CN(c4cccnc4)C3)cc2)CC1 [Example 57, N-(4-{[1-(methoxyacetyl)piperidin-4-yl]oxy}phenyl)-1-(pyridin-3-yl)azetidine-3-carboxamide] | 180 nM | 1.07 nM
4 | O=C(Nc1ccc(C2CCN(C(=O)CC3CCCC3)CC2)cc1)C1CN(c2cccnc2)C1 [Example 101, N-{4-[1-(cyclopentylacetyl)piperidin-4-yl]phenyl}-1-(pyridin-3-yl)azetidine-3-carboxamide] | 16.5 nM | 0.486 nM
5 | CC(C)(C)CCN1CCC(c2ccc(NC(=O)C3CN(c4cccnc4)C3)cc2)CC1 [Example 87, N-{4-[1-(3,3-dimethylbutyl)piperidin-4-yl]phenyl}-1-(pyridin-3-yl)azetidine-3-carboxamide] | 1390 nM | 1.27 nM
6 | Cc1ncccc1N1CC(C(=O)Nc2ccc(C3CCN(C(=O)CCC(C)C)CC3)cc2)C1 [Example 176, N-{4-[1-(4-methylpentanoyl)piperidin-4-yl]phenyl}-1-(2-methylpyridin-3-yl)azetidine-3-carboxamide] | 165 nM | 111 nM
7 | O=C(Nc1ccc(OC2CN(C(=O)c3ccc(C(F)(F)F)cc3)C2)cc1)C1CN(c2ccnnc2)C1 [Example 205, 1-(pyridazin-4-yl)-N-[4-({1-[4-(trifluoromethyl)benzoyl]azetidin-3-yl}oxy)phenyl]azetidine-3-carboxamide] | 25.1 nM | 34 nM
8 | CC(C)(O)C(=O)N1CCC(Oc2ccc(NC(=O)[C@H]3CCN(c4cccnc4)C3)cc2)CC1 [Example 17, (3S)-N-(4-{[1-(2-hydroxy-2-methylpropanoyl)piperidin-4-yl]oxy}phenyl)-1-(pyridin-3-yl)pyrrolidine-3-carboxamide] | 3510 nM | 2.36 nM
9 | CC(C)(C)C(=O)N1CCC(Oc2ccc(NC(=O)C3CN(c4ccnnc4)C3)cc2)CC1 [Example 280, N-(4-{[1-(2,2-dimethylpropanoyl)piperidin-4-yl]oxy}phenyl)-1-(pyridazin-4-yl)azetidine-3-carboxamide] | 123 nM | 51.9 nM
10 | O=C(Nc1ccc(C2CCN(C(=O)c3cccs3)CC2)cc1)C1CN(c2cccnn2)C1 [Example 376, 1-(pyridazin-3-yl)-N-{4-[1-(thiophen-2-ylcarbonyl)piperidin-4-yl]phenyl}azetidine-3-carboxamide] | 3.22 nM | 0.468 nM
11 | CCCCC(=O)N1CCC(c2ccc(NC(=O)C3CN(c4cccnc4)C3)cc2)CC1 [Example 98, N-[4-(1-pentanoylpiperidin-4-yl)phenyl]-1-(pyridin-3-yl)azetidine-3-carboxamide] | 13 nM | 0.209 nM
12 | Cc1ncccc1N1CC(C(=O)Nc2ccc(C3CCN(C(=O)c4ccccc4F)CC3)cc2)C1 [Example 150, N-{4-[1-(2-fluorobenzoyl)piperidin-4-yl]phenyl}-1-(2-methylpyridin-3-yl)azetidine-3-carboxamide] | 6.53 nM | 43.8 nM
13 | Cc1cc(C)cc(C(=O)N2CCC(c3ccc(NC(=O)C4CN(c5cccnn5)C4)cc3)CC2)c1 [Example 361, N-{4-[1-(3,5-dimethylbenzoyl)piperidin-4-yl]phenyl}-1-(pyridazin-3-yl)azetidine-3-carboxamide] | 37.4 nM | 0.988 nM
14 | O=C(Nc1ccc(C2CCN(C(=O)c3ccsc3)CC2)cc1)C1CN(c2cccnc2)C1 [Example 109, 1-(pyridin-3-yl)-N-{4-[1-(thiophen-3-ylcarbonyl)piperidin-4-yl]phenyl}azetidine-3-carboxamide] | 5.03 nM | 0.398 nM
15 | CC(C)Cn1cc(-c2ccc(C(=O)NC3CN(c4cccnn4)C3)o2)cn1 [Example 309, 5-[1-(2-methylpropyl)-1H-pyrazol-4-yl]-N-[1-(pyridazin-3-yl)azetidin-3-yl]furan-2-carboxamide] | 4150 nM | 0.293 nM
16 | CSCCC(=O)N1CCC(c2ccc(NC(=O)C3CN(c4cccnn4)C3)cc2)CC1 [Example 337, N-(4-{1-[3-(methylsulfanyl)propanoyl]piperidin-4-yl}phenyl)-1-(pyridazin-3-yl)azetidine-3-carboxamide] | 50 nM | 0.522 nM

Row | SMILES | IC50 [1] | IC50 (NAMPT)
17 | O=C(Nc1ccc(C2CCN(C(=O)c3ccc(Cl)cc3Cl)CC2)cc1)C1CN(c2cccnn2)C1 [Example 362, N-{4-[1-(2,4-dichlorobenzoyl)piperidin-4-yl]phenyl}-1-(pyridazin-3-yl)azetidine-3-carboxamide] | 15.2 nM | 0.832 nM
18 | Cc1ncccc1N1CC(C(=O)Nc2ccc(C3CCN(C(=O)c4cccn4C)CC3)cc2)C1 [Example 188, 1-(2-methylpyridin-3-yl)-N-(4-{1-[(1-methyl-1H-pyrrol-2-yl)carbonyl]piperidin-4-yl}phenyl)azetidine-3-carboxamide] | 20.5 nM | 49.9 nM
19 | CCCC(C)C(=O)N1CCC(c2ccc(NC(=O)C3CN(c4cccnn4)C3)cc2)CC1 (centres unmarked) [Example 322, N-{4-[1-(2-methylpentanoyl)piperidin-4-yl]phenyl}-1-(pyridazin-3-yl)azetidine-3-carboxamide] | 28.6 nM | 0.843 nM
20 | CSCC(=O)N1CCC(c2ccc(NC(=O)C3CN(c4cccnn4)C3)cc2)CC1 [Example 334, N-(4-{1-[(methylsulfanyl)acetyl]piperidin-4-yl}phenyl)-1-(pyridazin-3-yl)azetidine-3-carboxamide] | 18.2 nM | 0.578 nM
21 | CC[C@H](C)C(=O)N1CCC(c2ccc(NC(=O)C3CN(c4cccnc4)C3)cc2)CC1 [Example 22, N-(4-{1-[(2S)-2-methylbutanoyl]piperidin-4-yl}phenyl)-1-(pyridin-3-yl)azetidine-3-carboxamide] | 11.7 nM | 0.169 nM
22 | O=C(Nc1ccc(OC2CCN(C(=O)c3ccc(F)c(F)c3)CC2)cc1)C1CN(c2ccnnc2)C1 [Example 274, N-(4-{[1-(3,4-difluorobenzoyl)piperidin-4-yl]oxy}phenyl)-1-(pyridazin-4-yl)azetidine-3-carboxamide] | 152 nM | 64.5 nM
23 | CC(C)CCN1CCC(Oc2ccc(NC(=O)C3CN(c4cccnc4)C3)cc2)CC1 [Example 77, N-(4-{[1-(3-methylbutyl)piperidin-4-yl]oxy}phenyl)-1-(pyridin-3-yl)azetidine-3-carboxamide] | 3010 nM | 0.832 nM
24 | Cc1cc(C)cc(CC(=O)N2CCC(c3ccc(NC(=O)C4CN(c5cccnn5)C4)cc3)CC2)c1 [Example 372, N-(4-{1-[(3,5-dimethylphenyl)acetyl]piperidin-4-yl}phenyl)-1-(pyridazin-3-yl)azetidine-3-carboxamide] | 16.6 nM | 0.633 nM
25 | CC[C@H](C)C(=O)N1CCC(Oc2ccc(NC(=O)[C@H]3CCN(c4cccnc4)C3)cc2)CC1 [Example 19, (3S)-N-[4-({1-[(2S)-2-methylbutanoyl]piperidin-4-yl}oxy)phenyl]-1-(pyridin-3-yl)pyrrolidine-3-carboxamide] | 1170 nM | 0.554 nM
26 | O=C(Nc1ccc(C2CCN(C(=O)Cc3ccc(Cl)c(Cl)c3)CC2)cc1)C1CN(c2cccnn2)C1 [Example 374, N-(4-{1-[(3,4-dichlorophenyl)acetyl]piperidin-4-yl}phenyl)-1-(pyridazin-3-yl)azetidine-3-carboxamide] | 23.9 nM | 0.973 nM
27 | O=C(Nc1ccc(C2CCN(C(=O)c3ccc(C(F)(F)F)cc3)CC2)cc1)C1CN(c2cccnn2)C1 [Example 355, 1-(pyridazin-3-yl)-N-(4-{1-[4-(trifluoromethyl)benzoyl]piperidin-4-yl}phenyl)azetidine-3-carboxamide] | 115 nM | 0.986 nM
28 | Cn1cccc1C(=O)N1CCC(Oc2ccc(NC(=O)C3CN(c4cccnc4)C3)cc2)CC1 [Example 64, N-[4-({1-[(1-methyl-1H-pyrrol-2-yl)carbonyl]piperidin-4-yl}oxy)phenyl]-1-(pyridin-3-yl)azetidine-3-carboxamide] | 55.2 nM | 0.927 nM
29 | O=C(Nc1ccc(OC2CCN(C(=O)C3CCOC3)CC2)cc1)C1CN(c2ccnnc2)C1 (centres unmarked) [Example 298, 1-(pyridazin-4-yl)-N-(4-{[1-(tetrahydrofuran-3-ylcarbonyl)piperidin-4-yl]oxy}phenyl)azetidine-3-carboxamide] | 192 nM | 61.1 nM
30 | CC[C@H](C)C(=O)N1CCC(c2ccc(NC(=O)C3CN(c4ccnnc4)C3)cc2)CC1 [Example 143, N-(4-{1-[(2S)-2-methylbutanoyl]piperidin-4-yl}phenyl)-1-(pyridazin-4-yl)azetidine-3-carboxamide] | 17 nM | 31.1 nM
31 | O=C(Nc1ccc(C2CCN(C(=O)C3CCCCC3)CC2)cc1)C1CN(c2cccnc2)C1 [Example 136, N-{4-[1-(cyclohexylcarbonyl)piperidin-4-yl]phenyl}-1-(pyridin-3-yl)azetidine-3-carboxamide] | 20.4 nM | 0.635 nM
